Experimental findings from patent publication US20030143189A1, “Therapy for topical diseases” (priority 2001, published 2003) are described below.

This data set relates to plantar warts. Nature of the data set: Treatment of plantar warts on a patient's feet with in situ polymeric film versus freezing. The class given is in vivo, human. How it is done:
A patient presents to a dermatologist with two similar plantar warts on the soles of their left and right feet. The wart on the right foot is treated by freezing with liquid nitrogen.

On to `N#N` [liquid nitrogen], for which the “pain caused by the treatment (freeze burn)” value (plantar wart on sole of foot) is on record as “makes walking on the foot painful for several days”. Further, the “time until the wart resolves” value (plantar wart on sole of foot, film re-applied every 3-4 days) was found to be 3 weeks. In addition, the “return of the wart after resolution” value (plantar wart, film treatment continued two weeks after resolution) is “has returned after two months”.
